Measurements published in paper PMC4900628, “Critical Evaluation of P2X7 Receptor Antagonists in Selected Seizure Models” (PLoS ONE, 2016).
Structures can show the parent of a compound that is named as a salt.

Columns and labels:
mouse P2X7R = molecular target: T1, mouse P2X7R (Mus musculus, UniProt Q9Z1M0); assay: fluorometric Ca2+ assay (ATP-induced [Ca2+]i response) in HEKmP2X7 cells; type: cell-based; settings: fluo-4, 1 mM ATP, read-out: Potency IC50 ± SEM, Mouse P2X7R
T1 construct: expressed in transfected cells
T1 sequence (Q9Z1M0 1-595): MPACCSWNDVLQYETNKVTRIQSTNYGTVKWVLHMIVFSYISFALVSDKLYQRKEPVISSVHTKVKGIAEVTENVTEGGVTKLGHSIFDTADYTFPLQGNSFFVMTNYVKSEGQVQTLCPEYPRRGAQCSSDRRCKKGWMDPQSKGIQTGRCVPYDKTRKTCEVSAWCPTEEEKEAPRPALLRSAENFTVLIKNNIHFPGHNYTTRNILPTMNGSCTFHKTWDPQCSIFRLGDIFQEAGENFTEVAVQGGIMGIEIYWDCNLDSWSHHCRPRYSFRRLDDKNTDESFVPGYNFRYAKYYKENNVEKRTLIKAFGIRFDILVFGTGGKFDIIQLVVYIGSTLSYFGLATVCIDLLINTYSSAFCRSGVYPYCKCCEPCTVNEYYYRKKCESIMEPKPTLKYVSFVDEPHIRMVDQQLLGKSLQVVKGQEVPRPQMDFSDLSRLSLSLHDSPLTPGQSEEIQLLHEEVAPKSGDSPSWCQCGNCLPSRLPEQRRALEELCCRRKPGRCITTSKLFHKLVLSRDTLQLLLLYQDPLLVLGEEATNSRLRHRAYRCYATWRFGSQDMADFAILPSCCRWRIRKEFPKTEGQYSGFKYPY
Description: (§1) Cells were grown in a humidified incubator at 37°C in an atmosphere supplemented with 5% CO2. […] HEK293mP2X7 were cultured in DMEM under similar conditions as described above, but containing 100 μg/ml zeocin (Invitrogen). […] Expression of the transgene was induced by supplementing the medium with 1 μg/ml tetracycline (Sigma-Aldrich, Taufkirchen, Germany) 24 h prior to the experiments. All fluorometric Ca^2+ assays in cell suspensions were performed in 384-microwell plates (Corning, No. 3655, Lowell, MA, USA) with a fluorescence-imaging microplate reader (POLARstar Omega, BMG Labtech, Offenburg, Germany) (for details, see [61, 68]). […] Microwell plates were repetitively scanned every 16 s in the fast scanning mode of the device. […] Data were normalized to the baseline values before ATP application (F/F0). […] ATP-solution was freshly prepared in Mg^2+-free HBS solution and adjusted to pH 7.4. Aliquots of stock solutions were stored at -20°C and freshly diluted with the appropriate HBS solution. […] Results are expressed as mean ± SEM. […] In the PTZ-T, the number of animals in the group with clonic seizures and the latency time were analysed using Fisher's exact probability test and the Mann-Whitney rank sum test, respectively. For multiple comparisons of the latency time a one-way ANOVA with the Holm-Sidak post hoc test was used. The influence of AFC on the plasma and brain concentrations of the antiepileptic drugs was statistical compared using the same procedure. In the PTZ-kindling model, the mean seizure stage within a group was calculated in relation to the number of PTZ-injections. Statistical comparison between vehicle- and compound-treated groups in this model was performed with two-way repeated measures ANOVA, followed by the Holm-Sidak post hoc test. […] In fully kindled rats, the calculated mean seizure stage within a group after vehicle- and compound-treatment were compared using a paired t-test. P < 0.05 was the accepted minimum level of significance.

rat P2X7R = molecular target: T2, rat P2X7R (Rattus norvegicus, UniProt Q64663); assay: fluorometric Ca2+ assay (ATP-induced [Ca2+]i response) in HEKrP2X7 cells; type: cell-based; settings: HEKrP2X7 cells, fluo-4, 1 mM ATP; read-out: Potency IC50 ± SEM, Rat P2X7R
T2 construct: expressed in transfected cells; host or cells: HEK293 Flp-In T-REx (HEKrP2X7), tetracycline-induced
T2 sequence (Q64663 1-595): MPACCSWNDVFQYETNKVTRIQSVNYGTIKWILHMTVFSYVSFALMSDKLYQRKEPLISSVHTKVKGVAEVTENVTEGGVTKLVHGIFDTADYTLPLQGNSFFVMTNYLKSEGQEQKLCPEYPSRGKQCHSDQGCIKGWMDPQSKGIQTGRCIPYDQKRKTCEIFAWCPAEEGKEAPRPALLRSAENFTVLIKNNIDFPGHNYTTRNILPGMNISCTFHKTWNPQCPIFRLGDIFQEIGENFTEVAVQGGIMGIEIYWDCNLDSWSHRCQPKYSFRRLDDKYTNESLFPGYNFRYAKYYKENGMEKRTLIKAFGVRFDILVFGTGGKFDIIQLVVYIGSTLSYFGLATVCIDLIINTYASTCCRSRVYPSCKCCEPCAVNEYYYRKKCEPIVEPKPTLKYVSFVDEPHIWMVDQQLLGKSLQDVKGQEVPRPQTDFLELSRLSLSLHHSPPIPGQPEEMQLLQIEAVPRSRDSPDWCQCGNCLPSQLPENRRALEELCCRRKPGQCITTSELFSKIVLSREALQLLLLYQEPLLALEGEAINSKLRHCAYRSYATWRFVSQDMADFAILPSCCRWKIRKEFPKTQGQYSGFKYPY
Description: as §1

human P2X7R = molecular target: T3, human P2X7R (Homo sapiens, UniProt Q99572); assay: fluorometric Ca2+ assay (ATP-induced [Ca2+]i response) in HEKhP2X7 cells; type: cell-based; settings: fluo-4, 1 mM ATP, read-out: Potency IC50 ± SEM, Human P2X7R
T3 construct: expressed in transfected cells
T3 sequence (Q99572 1-595): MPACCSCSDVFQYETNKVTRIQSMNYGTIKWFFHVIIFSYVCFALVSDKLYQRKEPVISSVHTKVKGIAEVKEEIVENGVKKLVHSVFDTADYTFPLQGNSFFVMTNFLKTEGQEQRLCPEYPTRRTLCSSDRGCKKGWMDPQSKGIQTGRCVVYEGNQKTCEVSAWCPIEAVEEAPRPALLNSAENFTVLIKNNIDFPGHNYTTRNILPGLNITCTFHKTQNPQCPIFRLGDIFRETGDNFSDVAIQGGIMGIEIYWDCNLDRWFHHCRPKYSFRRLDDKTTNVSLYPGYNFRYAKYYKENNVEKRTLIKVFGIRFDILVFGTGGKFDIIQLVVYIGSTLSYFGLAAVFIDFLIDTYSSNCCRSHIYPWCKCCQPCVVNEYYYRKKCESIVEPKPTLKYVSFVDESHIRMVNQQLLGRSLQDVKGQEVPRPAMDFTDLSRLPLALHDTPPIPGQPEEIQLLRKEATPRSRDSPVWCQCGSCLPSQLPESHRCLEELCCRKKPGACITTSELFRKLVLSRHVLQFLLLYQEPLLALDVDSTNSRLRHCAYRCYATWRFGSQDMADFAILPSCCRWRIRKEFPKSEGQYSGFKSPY
Description: as §1

[1] = system: PTZ-induced seizures in fully PTZ-kindled rats; assay: PTZ-induced seizures in fully kindled rats; type: in vivo; settings: fully kindled rats; 100 mg/kg i.p.; pre-drug (vehicle) value 4.0
Source text: Results were expressed as mean seizure stages of a tested group in which the seizure behaviour after vehicle treatment (vehicle seizure stage) and after compound treatment (compound seizure stage), examined 3-4 days later, was matched. For comparison, the effectiveness of two antiepileptic drugs (carbamazepine and valproate) was also investigated. […] Chemicals, Toronto, Canada) was slowly added. The pH was adjusted with 1N NaOH (similar amount of NaOH as HCl), all with continuous stirring. […] The drug solutions or suspensions were prepared immediately before use; all doses refer to the salts. Animals in the control group received equivalent volumes of the vehicle (in mice always 10 ml/kg, in rats 1 ml/kg [JNJ], 3 ml/kg [AFC] or 4 ml/kg [BBG, TIIAS], depending on the solubility of the different compounds). Doses and peak time effects were selected on the basis of effective doses from corresponding in vivo studies in the literature: BBG (e.g.), tanshinone IIA (e.g.) and from manufacturer's experimental data: AFC, JNJ (see, [80]). Data were analysed using SigmaPlot (vers. 12.0, Systat Software, Erkrath, Germany) and SPSS (IBM SPSS Statistics 20, […], Germany), respectively. Results are expressed as mean ± SEM. […] In the MES-T, the current intensity inducing tonic hindlimb extensions in 50% of the mice (CC50 values with confidence limits for 95% probability) and the statistical significance was calculated using Probit analysis (SPSS). […] In the PTZ-T, the number of animals in the group with clonic seizures and the latency time were analysed using Fisher's exact probability test and the Mann-Whitney rank sum test, respectively. For multiple comparisons of the latency time a one-way ANOVA with the Holm-Sidak post hoc test was used. The influence of AFC on the plasma and brain concentrations of the antiepileptic drugs was statistical compared using the same procedure. In the PTZ-kindling model, the mean seizure stage within a group was calculated in relation to the number of PTZ-injections. Statistical comparison between vehicle- and compound-treated groups in this model was performed with two-way repeated measures ANOVA, followed by the Holm-Sidak post hoc test. The mean number of PTZ-injections needed to produce the first generalized seizure (≥ stage 3 convulsions) in the vehicle- versus compound-treated groups was statistically compared using a Mann-Whitney rank sum test. In fully kindled rats, the calculated mean seizure stage within a group after vehicle- and compound-treatment were compared using a paired t-test. P < 0.05 was the accepted minimum level of significance.

SMILES: Clc1cccc(-c2nnnn2Cc2cccnc2)c1Cl [A-438079, 3-[[5-(2,3-dichlorophenyl)-1H-tetrazol-1yl]methyl]pyridine hydrochloride hydrate]
- IC50 (mouse P2X7R): 280 ± 20 nM
- IC50 (rat P2X7R): 220 ± 10 nM
- IC50 (human P2X7R): 70 ± 9 nM

SMILES: O=C(CC12CC3CC(CC(C3)C1)C2)Nc1cccc2nc(NCCNCCO)ccc12 [AZ-10606120, N-[2-[[2-[(2-hydroxyethyl)amino]ethyl]amino]-5-quinolinyl]-2-tricyclo[3.3.1.13,7]dec-1-ylacetamide dihydrochloride]
- IC50 (mouse P2X7R): 120 ± 5 nM
- IC50 (rat P2X7R): 20 ± 2 nM

SMILES: CCCC(CCC)C(=O)O [Ca-valproate, Ca-valproate dihydrate]
- mean seizure stage, post-drug [1]: 1.1
